Assay results from patent US5578608A, “Symmetrical diaryl and diheteroanyl cis epoxy alkanes antiviral compounds” (Eli Lilly and Company, priority 1995, dated 1996).
Read-outs that look alike come from different tables or passages of the source.

Target: T1, HIV-1 protease (Human immunodeficiency virus type 1 group M subtype B, UniProt P04585)
T1 construct: made in house; host or cells: E. coli K12 L507/pHP10D (NRRL B-18560)
Test: biochemical
Conditions: for inhibition at 1 µg/mL: at 1000 ng/ml, read-out: Fluorescence Assay, given as ICxx (1000): xx is the percent inhibition
Protocol: A culture of E. coli K12 L507/pHP10D was grown to mid-log phase at 32° C. in LB media containing 12.5 μg/ml tetracycline. The cultivation temperature was quickly elevated to 40° C. to induce gene expression, and the cells were allowed to grow for 2.5 hours at this temperature before the culture was quickly chilled on ice. The cells were centrifuged and the cell pellet was resuspended in 20 mL 50 mmol MES buffer (pH 6.0) containing 1 mmol EDTA, 1 mmol DTT, 1 mmol PMSF and 10% glycerol ("Buffer A"). Cells were lysed by sonication using a Fischer Model 300 Dismembrator and a microtip probe. Following centrifugation at 27,000 x g, the supernatant was diluted to a total volume of 60 mL with Buffer A and loaded onto a 2.0×19 cm QAE-Sepharose column (1 mL/min, 4° C.), that had been equilibrated in Buffer A. The column was washed isocratically for 180 min and then eluted with a gradient eluent of 0-1.0M NaCl in Buffer A over 120 min. Enzymatic activity was measured by HPLC using the synthetic peptide SQNYPIV as described in Margolin et al., Biochem. Biophys. Res. Commun., […], 554-560 (1990); the production of the p1 peptide (SQNY) was measured.
N^a -Biotin-[…]N^e -FITC)-OH SEQ ID NO: 1
The following buffers and solutions are used in the Fluorescence HIV-1 Protease Inhibitor Assay:
To each well of a round bottom, 96-well plate is added 20 μL of the Enzyme Solution followed by 10 μL of the compound to be evaluated in a 20% aqueous dimethylsulfoxide solution. Purified HIV-1 protease was obtained as described above. The resulting solution is incubated for one hour at room temperature and then 20 μL of a solution containing the substrate, N^a -Biotin-[…]N^e-FITC)-OH, in MES-ALB buffer ([…]) is added to each well. The solutions are then incubated for 16 hours at room temperature and then each well is diluted with 150 μL of MES-ALB buffer.
To each well of a second round bottom, 96-well Pandex plate is added 25 uL of the Avidin Coated Beads Solution. Then, to each well is added 25 μL of the diluted incubation solutions, prepared above. The solutions are mixed thoroughly and the plates are loaded into a Pandex® machine, washed, evacuated and read. Sample detection was performed by excitation at 485 nm, reading the resulting epifluorescence at 535 nm.

[1] = read-out: Fluorescence Assay IC50 (converted)
[2] = read-out: Fluorescence Assay average IC50 (marked *) (converted)
[3] = 16 h incubation at room temperature, MES-ALB buffer pH 5.5, normalized to a positive control, read-out: Fluorescence Assay IC50 (converted)

| SMILES | IC50 [1] [nM] | IC50 [2] [nM] | further results |
| --- | --- | --- | --- |
| N#CC[C@H](NC(=O)c1ccc2ccccc2n1)C(=O)N[C@@H](Cc1ccccc1)[C@@H]1O[C@@H]1[C@H](Cc1ccccc1)NC(=O)[C@H](CC#N)NC(=O)c1ccc2ccccc2n1 [Example 3, 1,6-Diphenyl-2(S),5(S)-di[N-[2(S)-N(quinolin-2-ylcarbonyl)amino-3-cyanopropanoyl]amino]-3,4-cis-epoxyhexane] | 5350 |  |  |
| CC(C)[C@H](NC(=O)OCc1ccccn1)C(=O)N[C@@H](Cc1ccccc1)[C@@H]1O[C@@H]1[C@H](Cc1ccccc1)NC(=O)[C@@H](NC(=O)OCc1ccccn1)C(C)C [Example 8, 1,6-Diphenyl-2(S),5(S)-di[N-[2(S)-N(pyrid-2-ylmethoxycarbonyl)amino-3-methylbutanoyl]amino]-3,4-cis-epoxyhexane] |  | 349 |  |
| CC[C@H](C)[C@H](NC(=O)N(C)Cc1ccccn1)C(=O)N[C@@H](Cc1ccccc1)[C@@H]1O[C@@H]1[C@H](Cc1ccccc1)NC(=O)[C@@H](NC(=O)N(C)Cc1ccccn1)[C@@H](C)CC [Example 24, 1,6-Diphenyl-2(S),5(S)-di[N-[2(S)-N[[N(methyl)-N(pyrid-2-ylmethyl)amino]carbonyl]amino-3(S)-methylpentanoyl]amino]-3,4-cis-epoxyhexane] |  |  | IC50 [3]: 163 nM |
| O=C(N[C@@H](Cc1c[nH]cn1)C(=O)N[C@@H](Cc1ccccc1)[C@@H]1O[C@@H]1[C@H](Cc1ccccc1)NC(=O)[C@H](Cc1c[nH]cn1)NC(=O)OCc1ccccc1)OCc1ccccc1 [Example 9, 1,6-Diphenyl-2(S),5(S)-di[N-[2(S)-N(benzyloxycarbonyl)amino-3-imidazol-4-yl-propanoyl]amino]-3,4-cis-epoxyhexane] | 84.2 |  |  |
| CC(C)(C)[C@H](NC(=O)OCc1ccc2ccccc2n1)C(=O)N[C@@H](Cc1ccccc1)[C@@H]1O[C@@H]1[C@H](Cc1ccccc1)NC(=O)[C@@H](NC(=O)OCc1ccc2ccccc2n1)C(C)(C)C [Example 30] | 382 |  |  |
| CC(C)[C@H](NC(=O)OCc1ccc2ccccc2n1)C(=O)N[C@@H](Cc1ccccc1)[C@@H]1O[C@@H]1[C@H](Cc1ccccc1)NC(=O)[C@@H](NC(=O)OCc1ccc2ccccc2n1)C(C)C [Example 4, 1,6-Diphenyl-2(S),5(S)-di[N-[2(S)-N[(quinolin-2-ylmethoxy)carbonyl]amino-3-methylbutanoyl]amino]-3,4-cis-epoxyhexane] |  | 59.9 |  |
| CC[C@H](NC(=O)N(C)Cc1ccc2ccccc2n1)C(=O)N[C@@H](Cc1ccc2ccccc2c1)[C@@H]1O[C@@H]1[C@H](Cc1ccc2ccccc2c1)NC(=O)[C@H](CC)NC(=O)N(C)Cc1ccc2ccccc2n1 [Example 32] |  | 181 |  |
| CCC[C@H](NC(=O)N(C)Cc1ccc2ccccc2n1)C(=O)N[C@@H](Cc1ccccc1)[C@@H]1O[C@@H]1[C@H](Cc1ccccc1)NC(=O)[C@H](CCC)NC(=O)N(C)Cc1ccc2ccccc2n1 [Example 21, 1,6-Diphenyl-2(S),5(S)-di[N-[2(S)-N[[N(methyl)-N(quinolin-2-ylmethyl)amino]carbonyl]aminopentanoyl]amino]-3,4-cis epoxyhexane] | 66.1 |  |  |
| O=C(N[C@@H](Cn1cccn1)C(=O)N[C@@H](Cc1ccccc1)[C@@H]1O[C@@H]1[C@H](Cc1ccccc1)NC(=O)[C@H](Cn1cccn1)NC(=O)OCc1ccccc1)OCc1ccccc1 [Example 7, 1,6-Diphenyl-2(S),5(S)-di[N-[2(S)-N(benzyloxycarbonyl)amino-3-pyrazol-1-ylpropanoyl]amino]3,4-cis-epoxyhexane] | 8260 |  |  |
| CCCC[C@H](NC(=O)OCc1ccccn1)C(=O)N[C@@H](Cc1ccccc1)[C@@H]1O[C@@H]1[C@H](Cc1ccccc1)NC(=O)[C@H](CCCC)NC(=O)OCc1ccccn1 [Example 25, 1,6-Diphenyl-2(S),5(S)-di[N-[2(S)-N(pyrid-2-ylmethoxycarbonyl)amino]hexanoyl]amino-3,4-cis-epoxyhexane] |  |  | inhibition at 1 µg/mL: 40% |
| CC[C@H](C)[C@H](NC(=O)OCc1ccccc1)C(=O)N[C@@H](Cc1ccccc1)[C@@H]1O[C@@H]1[C@H](Cc1ccccc1)NC(=O)[C@@H](NC(=O)OCc1ccccc1)[C@@H](C)CC [Example 14] |  |  | IC50 [3]: 236 nM |
| CC(C)[C@H](NC(=O)OCc1ccc2cccc(F)c2n1)C(=O)N[C@@H](Cc1ccccc1)[C@@H]1O[C@@H]1[C@H](Cc1ccccc1)NC(=O)[C@@H](NC(=O)OCc1ccc2cccc(F)c2n1)C(C)C [Example 17, 1,6-Diphenyl-2(S),5(S)-di[N-[2(S)-N[(8-fluoroquinolin-2-ylmethoxy)carbonyl]amino-3-methylbutanoyl]amino]-3,4-cis-epoxyhexane] |  | 23.1 |  |
| CC[C@H](NC(=O)N(C)Cc1ccc2ccccc2n1)C(=O)N[C@@H](CCCc1ccccc1)[C@@H]1O[C@@H]1[C@H](CCCc1ccccc1)NC(=O)[C@H](CC)NC(=O)N(C)Cc1ccc2ccccc2n1 [Example 38, 1,10-Diphenyl-4(S),7(S)-di[N-[2(S)-N-[[N(methyl)-N(quinolin-2-ylmethyl)amino]carbonyl]aminobutanoyl]amino]-5,6-cis-epoxydecane] | 23.8 |  |  |
| CC(C)[C@H](NC(=O)OCc1ccccc1)C(=O)N[C@@H](Cc1ccccc1)[C@@H]1O[C@@H]1[C@H](Cc1ccccc1)NC(=O)[C@@H](NC(=O)OCc1ccccc1)C(C)C [Example 1, 1,6-Diphenyl-2(S),5(S)-di[N-[2(S)-N(benzyloxycarbonyl)amino-3-methyl-butanoyl]amino]-3,4-cis-epoxyhexane] |  | 212 |  |
| Cc1cccc(COC(=O)N[C@H](C(=O)N[C@@H](Cc2ccccc2)[C@@H]2O[C@@H]2[C@H](Cc2ccccc2)NC(=O)[C@@H](NC(=O)OCc2cccc(C)n2)C(C)C)C(C)C)n1 [Example 29, 1,6-Diphenyl-2(S),5(S)-di[N-[2(S)-N(6-methylpyrid-2-ylmethoxycarbonyl)amino-3-methylbutanoyl]amino]-3,4-cis-epoxyhexane] | 39.2 |  |  |
| CC[C@H](C)[C@H](NC(=O)N(C)Cc1ccc2ccccc2n1)C(=O)N[C@@H](Cc1ccccc1)[C@@H]1O[C@@H]1[C@H](Cc1ccccc1)NC(=O)[C@@H](NC(=O)N(C)Cc1ccc2ccccc2n1)[C@@H](C)CC [Example 19, 1,6-Diphenyl-2(S),5(S)-di[N-[2(S)-N[[N(methyl)-N(quinolin-2-ylmethyl)amino]carbonyl]amino-3(S)methylpentanoyl]amino]-3,4-cis-epoxyhexane] |  | 166 |  |
| CC[C@H](C)[C@H](NC(=O)NCc1ccccn1)C(=O)N[C@@H](Cc1ccccc1)[C@@H]1O[C@@H]1[C@H](Cc1ccccc1)NC(=O)[C@@H](NC(=O)NCc1ccccn1)[C@@H](C)CC [Example 31] | 32.4 |  |  |
| CC(C)[C@H](NC(=O)N(C)CCc1ccccn1)C(=O)N[C@@H](Cc1ccccc1)[C@@H]1O[C@@H]1[C@H](Cc1ccccc1)NC(=O)[C@@H](NC(=O)N(C)CCc1ccccn1)C(C)C [Example 16, 1,6-Diphenyl-2(S),5(S)-di[N-[2(S)-N-[[N(methyl)-N(pyrid-2-ylethyl)amino]carbonyl]amino-3-methylbutanoyl]amino]-3,4-cis-epoxyhexane] |  |  | inhibition at 1 µg/mL: 32% |
| CC[C@H](NC(=O)N(C)Cc1ccccn1)C(=O)N[C@@H](Cc1ccc2ccccc2c1)[C@@H]1O[C@@H]1[C@H](Cc1ccc2ccccc2c1)NC(=O)[C@H](CC)NC(=O)N(C)Cc1ccccn1 [Example 34, 1,6-Dinaphth-2-yl-2(S),5(S)-di[N-[2(S)-N-[[N(methyl)-N (pyrid-2-ylmethyl)amino]carbonyl]aminobutanoyl]amino]-3,4-cis-epoxyhexane] |  |  | inhibition at 1 µg/mL: 34% |
